# Laboratory results as given in patent US12714747B2, “Cytotoxic lipid particles targeted to tumor-associated myeloid cells (TAMCS) and synergized with radiation therapy for treating glioblastoma” (priority 2019, dated 2026).
# Assays:
# TAMCs = assay: Annexin V viability assay of TAMCs; format: cell-based, C57BL/6 mice; settings: 24 h
# Protocol: In vitro viability, gene expression, and PD-L1 expression of TAMCs post treatments. In vitro generated TAMCs (8×10^5 cells/well) were seeded in 24-well plate. After 24 h of culture, cells were incubated with αPD-L1-LNP/Dina, αPD-L1-LNP, or free Dina. At predetermined time intervals, the cells were collected and washed, followed by the annexin V assay (BioLegend). RNA isolation was processed using the RNEasy Plus Mini Kit (Qiagen), and total RNA was quantified by Nanodrop (Thermo Scientific). cDNA was synthesized using the iScript cDNA synthesis kit (Bio-Rad), and analyzed by qPCR analysis (Bio-Rad). Selected groups of cells were exposed to irradiation and collected 72 h post treatments for cell circle analysis using BrdU Flow Kit (Fisher) following the manufacturer's protocol.
# PD-L1 = PD-L1 expression on TAMCs after IFNγ stimulation (RT-qPCR, flow cytometry); format: cell-based, C57BL/6 mice; settings: as low as
# Protocol: To detect the PD-L1 expression on TAMCs post treatments, in vitro generated TAMCs (8×10^5 cells/well) were seeded in 24-well plate. After 24 h of culture, cells were subject to different treatments (Dina, αPD-L1/LNP, or αPD-L1-LNP/Dina) at a Dina concentration of 25 nM. Selected groups of cells were exposed to IFNγ (PeproTech) stimulation at 10 ng/ml for 24 h. Cells were collected and washed, followed by qPCR analysis or antibody staining for flow cytometry. The effect of irradiation on PD-L1 expression on TAMCs was similarly assessed 72 h post irradiation.
# [1] = tested on: glioma-associated immune cells (TAMC, microglia, TIL); assay: Ex vivo TAMC elimination assay; format: cell-based, mice; settings: 0, 25, 50 nM Dina, 72 h
# Protocol: TAMC targeting and elimination in ex vivo mice and human glioma models. Cell suspension collected from mouse or human samples was plated into 96 well U bottom plate. Cells were pre-blocked with Ultra-LEAF purified anti-mouse CD16/32 antibody or Human TruStain FcX (BioLegend) for 10 min at 4° C., followed by incubation with fluorescence labeled LNPs (0.15 mg lipids/ml) for 1 h at 37° C. in 5% CO2 humidified atmosphere. After gently washed with ice-cold PBS thrice, the cells were collected for staining with viability dye and antibodies. The cellular uptake was analyzed by flow cytometry. The ex vivo TAMC elimination assay was performed using cell suspension collected from mouse glioma samples. Cells were plated into 96 well U bottom plate in 50% complete RPMI and 50% conditioned media collected from GL261 glioma cell culture as aforementioned. Cells were subject to the treatment of αPD-L1/LNP/Dina or free Dina at a Dina concentration of 0, 25, and 50 nM for 72 h, and analyzed by flow cytometry.
structure (smiles),measurement,setting,value
"CCc1cnn2c(NCc3ccc[n+]([O-])c3)cc(N3CCCC[C@H]3CCO)nc12 [Dina, Dinaciclib]",cytotoxicity / viability of TAMCs,TAMCs,comparable cytotoxicity
same,dose attenuating PD-L1 expression on TAMCs,PD-L1,25 nM
same,off-target toxicity to tumor-infiltrating lymphocytes / immune cell populations,[1],severe off-target cytotoxicity
